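Interpolation was linear, between the two tested concentrations surrounding the appropriate level; five concentrations were tested over 48 hours in 96-well plates. GI50 = concentration required for 50% inhibition of growth.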 The source made the active and inactive calls. Cut-off read from the data, not from the text of the source: active = GI50 up to about 1.1 µM and inactive = higher.
Experiments:
Test in all cases: growth of human tumour cells (NCI), 48 h
786-0 = test system: 786-0
A498 = test system: A498
A549 = test system: A549
ACHN = test system: ACHN
BT-549 = test system: BT-549
CAKI-1 = test system: CAKI-1
CCRF-CEM = test system: CCRF-CEM
COLO 205 = test system: COLO 205
DU-145 = test system: DU-145
EKVX = test system: EKVX
HCC 2998 = test system: HCC 2998
HCT-116 = test system: HCT-116
HCT-15 = test system: HCT-15
HL-60 = test system: HL-60
HOP-62 = test system: HOP-62
HOP-92 = test system: HOP-92
HT-29 = test system: HT-29
Hs-578T = test system: Hs-578T
IGROV-1 = test system: IGROV-1
K562 = test system: K562
KM12 = test system: KM12
LOX IMVI = test system: LOX IMVI
M14 = test system: M14
MCF7 = test system: MCF7
MDA-MB-231 = test system: MDA-MB-231
MDA-MB-435 = test system: MDA-MB-435
MDA-N = test system: MDA-N
MOLT-4 = test system: MOLT-4
Malme-3M = test system: Malme-3M
NCI-H226 = test system: NCI-H226
NCI-H23 = test system: NCI-H23
NCI-H460 = test system: NCI-H460
NCI-H522 = test system: NCI-H522
NCI/ADR-RES = test system: NCI/ADR-RES
OVCAR-3 = test system: OVCAR-3
OVCAR-4 = test system: OVCAR-4
OVCAR-5 = test system: OVCAR-5
OVCAR-8 = test system: OVCAR-8
PC-3 = test system: PC-3
RPMI-8226 = test system: RPMI-8226
RXF 393 = test system: RXF 393
SF-268 = test system: SF-268
SF-295 = test system: SF-295
SF-539 = test system: SF-539
SK-MEL-28 = test system: SK-MEL-28
SK-MEL-2 = test system: SK-MEL-2
SK-MEL-5 = test system: SK-MEL-5
SK-OV-3 = test system: SK-OV-3
SN12C = test system: SN12C
SNB-19 = test system: SNB-19
SNB-75 = test system: SNB-75
SR = test system: SR
SW-620 = test system: SW-620
T47D = test system: T47D
TK-10 = test system: TK-10
U-251 = test system: U-251
UACC-257 = test system: UACC-257
UACC-62 = test system: UACC-62
UO-31 = test system: UO-31

## COC(=O)c1c(C)cccc1C1CN=NC12Cc1ccccc1C2=O (stereo not drawn)
786-0
  GI50: > 100 µM (inactive)
A498
  GI50: 98.6 µM (inactive)
A549
  GI50: > 82.6 µM (inactive)
ACHN
  GI50: > 100 µM (inactive)
BT-549
  GI50: 54.5 µM (inactive)
CAKI-1
  GI50: 98.6 µM (inactive)
CCRF-CEM
  GI50: 38.6 µM (inactive)
COLO 205
  GI50: 60.8 µM (inactive)
DU-145
  GI50: > 100 µM (inactive)
EKVX
  GI50: > 93.5 µM (inactive)
HCC 2998
  GI50: > 100 µM (inactive)
HCT-116
  GI50: 46.2 µM (inactive)
HCT-15
  GI50: 78.3 µM
HL-60
  GI50: 36.9 µM (inactive)
HOP-62
  GI50: > 100 µM (inactive)
HOP-92
  GI50: > 57.7 µM (inactive)
HT-29
  GI50: > 100 µM (inactive)
Hs-578T
  GI50: 96.2 µM (inactive)
IGROV-1
  GI50: > 91.2 µM (inactive)
K562
  GI50: 37.1 µM (inactive)
KM12
  GI50: > 78 µM (inactive)
LOX IMVI
  GI50: 31.2 µM (inactive)
M14
  GI50: 20.1 µM (inactive)
MCF7
  GI50: 2.46 µM (inactive)
MDA-MB-231
  GI50: 45.7 µM (inactive)
MDA-MB-435
  GI50: > 82 µM (inactive)
MDA-N
  GI50: > 100 µM (inactive)
MOLT-4
  GI50: 36.2 µM (inactive)
Malme-3M
  GI50: > 45.1 µM (inactive)
NCI-H226
  GI50: > 83.4 µM (inactive)
NCI-H23
  GI50: 60.4 µM (inactive)
NCI-H460
  GI50: > 75.9 µM (inactive)
NCI-H522
  GI50: 43.5 µM (inactive)
NCI/ADR-RES
  GI50: 35.1 µM (inactive)
OVCAR-3
  GI50: 15.7 µM (inactive)
OVCAR-4
  GI50: > 92.3 µM (inactive)
OVCAR-5
  GI50: > 100 µM (inactive)
OVCAR-8
  GI50: > 100 µM (inactive)
PC-3
  GI50: 78.5 µM (inactive)
RPMI-8226
  GI50: 35.3 µM (inactive)
RXF 393
  GI50: > 100 µM (inactive)
SF-268
  GI50: > 53 µM (inactive)
SF-295
  GI50: 62.2 µM (inactive)
SF-539
  GI50: > 100 µM (inactive)
SK-MEL-28
  GI50: > 71.1 µM (inactive)
SK-MEL-2
  GI50: > 100 µM (inactive)
SK-MEL-5
  GI50: 37.4 µM (inactive)
SK-OV-3
  GI50: > 100 µM (inactive)
SN12C
  GI50: > 100 µM (inactive)
SNB-19
  GI50: > 100 µM (inactive)
SNB-75
  GI50: 65.2 µM (inactive)
SR
  GI50: 47.2 µM (inactive)
SW-620
  GI50: > 100 µM (inactive)
T47D
  GI50: 38.1 µM (inactive)
TK-10
  GI50: > 100 µM (inactive)
U-251
  GI50: > 100 µM (inactive)
UACC-257
  GI50: 36.1 µM (inactive)
UACC-62
  GI50: 74.6 µM (inactive)
UO-31
  GI50: 33.1 µM (inactive)

## COc1ccc(CNC(=O)[C@H](Cc2ccc(O)cn2)NC(C)=O)cc1OC
786-0
  GI50: > 100 µM (inactive)
A498
  GI50: > 100 µM (inactive)
A549
  GI50: > 100 µM (inactive)
ACHN
  GI50: > 100 µM (inactive)
BT-549
  GI50: > 100 µM (inactive)
CAKI-1
  GI50: > 100 µM (inactive)
CCRF-CEM
  GI50: > 100 µM (inactive)
COLO 205
  GI50: > 100 µM (inactive)
DU-145
  GI50: > 100 µM (inactive)
EKVX
  GI50: > 100 µM (inactive)
HCC 2998
  GI50: > 100 µM (inactive)
HCT-116
  GI50: > 100 µM (inactive)
HCT-15
  GI50: > 100 µM
HL-60
  GI50: > 100 µM (inactive)
HOP-62
  GI50: > 100 µM (inactive)
HOP-92
  GI50: > 100 µM (inactive)
HT-29
  GI50: > 100 µM (inactive)
Hs-578T
  GI50: > 74.5 µM (inactive)
IGROV-1
  GI50: > 100 µM (inactive)
K562
  GI50: > 100 µM (inactive)
KM12
  GI50: > 100 µM (inactive)
LOX IMVI
  GI50: > 100 µM (inactive)
M14
  GI50: > 100 µM (inactive)
MCF7
  GI50: > 100 µM (inactive)
MDA-MB-231
  GI50: > 100 µM (inactive)
MDA-MB-435
  GI50: > 100 µM (inactive)
MDA-N
  GI50: > 100 µM (inactive)
MOLT-4
  GI50: > 96.8 µM (inactive)
Malme-3M
  GI50: > 100 µM (inactive)
NCI-H226
  GI50: > 100 µM (inactive)
NCI-H23
  GI50: > 100 µM (inactive)
NCI-H460
  GI50: > 100 µM (inactive)
NCI-H522
  GI50: > 93.5 µM (inactive)
NCI/ADR-RES
  GI50: > 100 µM (inactive)
OVCAR-3
  GI50: > 100 µM (inactive)
OVCAR-4
  GI50: > 100 µM (inactive)
OVCAR-5
  GI50: > 100 µM (inactive)
OVCAR-8
  GI50: > 100 µM (inactive)
PC-3
  GI50: > 100 µM (inactive)
RPMI-8226
  GI50: > 100 µM (inactive)
RXF 393
  GI50: > 100 µM (inactive)
SF-268
  GI50: > 90.6 µM (inactive)
SF-295
  GI50: > 100 µM (inactive)
SF-539
  GI50: > 100 µM (inactive)
SK-MEL-28
  GI50: > 100 µM (inactive)
SK-MEL-2
  GI50: > 100 µM (inactive)
SK-MEL-5
  GI50: > 100 µM (inactive)
SK-OV-3
  GI50: > 100 µM (inactive)
SN12C
  GI50: > 100 µM (inactive)
SNB-19
  GI50: > 100 µM (inactive)
SNB-75
  GI50: > 100 µM (inactive)
SR
  GI50: > 100 µM (inactive)
SW-620
  GI50: > 100 µM (inactive)
T47D
  GI50: > 100 µM (inactive)
TK-10
  GI50: > 100 µM (inactive)
U-251
  GI50: > 100 µM (inactive)
UACC-257
  GI50: > 100 µM (inactive)
UACC-62
  GI50: > 100 µM (inactive)
UO-31
  GI50: > 100 µM (inactive)
